Key:
[1] = test system: cotton aphid (Aphis gossypil); assay: Greenhouse trial, cotton plants infected with cotton aphid, sprayed; % control; type: in vivo
Procedure: (§1) A greenhouse trial was conducted to determine the insecticidal effects against the cotton aphid (Aphis gossypil). In this regard, cotton plants infected with the cotton aphid were sprayed in a growth chamber and placed in a greenhouse. Counts were made on apterous forms at 6 and 16 days after treatment (DAT), with the data appearing in Tables 1A and 1 B below.

[2] = test system: green peach aphids (Myzus persicae); assay: Greenhouse trial, celosia infected with green peach aphids; % control; type: in vivo
Procedure: as §1
Example 1 was repeated except using celosia infected with green peach aphids (Myzus persicae) and using the application rates noted.

[3] = test system: twospotted spider mites (Tetranychus urticae); assay: Greenhouse trial, dracaena infected with twospotted spider mites; % control; type: in vivo
Procedure: as §1
Example 1 was repeated except using dracaena infected with twospotted spider mites (Tetranychus urticae) and using the application rates noted.

[4] = test system: cotton aphid; assay: Greenhouse trial, number of apterous aphids (AA) per cotton plant; type: in vivo, Aphis gossypil; settings: for # of AA 6 DAT / # of AA 16 DAT: apterous aphids per plant; for # of AA 6 DAT: untreated 290; for # of AA 16 DAT: untreated 750
Procedure: as §1
Example 1 was repeated and the number of apterous aphids (AA) per plant at 6 and 16 DAT were noted. The data appear in Table 4 below versus a conventional insecticide, imidacloprid (Provado® insecticide commercially available from Bayer Corp.).

How did the “% Cotton Aphid Control 6 DAT” value ([1]; 5 ppm) turn out when CC(C)(C)c1ccc(CSc2cnn(C(C)(C)C)c(=O)c2Cl)cc1 [BAS 300, 2-tert-butyl-5-(4-tert-butylbenzylthio)-4-chloropyridazin-3(2H)-one] was run?
Its value is 73.8%.

And the “% Cotton Aphid Control 16 DAT” value ([1]; 5 ppm)?
Its value is 68.9%.

And the “% Cotton Aphid Control 6 DAT” value ([1]; 10 ppm)?
Its value is 75.2%.

And the “% Cotton Aphid Control 16 DAT” value ([1]; 10 ppm)?
Its value is 70.4%.

What about the “% Cotton Aphid Control 6 DAT” value ([1]; 50 ppm) of the same molecule?
The value was 94.5%.

What about the “% Cotton Aphid Control 16 DAT” value ([1]; 50 ppm) of the same molecule?
The value was 98%.

And the “% Cotton Aphid Control 6 DAT” value ([1]; 100 ppm)?
The value was 97.6%.

What about the “% Cotton Aphid Control 16 DAT” value ([1]; 100 ppm) of the same molecule?
The value was 99.1%.

What about the “% Green Peach Aphid Control” value ([2]; 0.9 lb ai/100 gal, 2 DAT) of the same molecule?
The value was 0%.

And the “% Green Peach Aphid Control” value ([2]; 0.9 lb ai/100 gal, 4 DAT)?
Its value is 47%.

What about the “% Green Peach Aphid Control” value ([2]; 0.9 lb ai/100 gal, 6 DAT) of the same molecule?
The value was 77%.

And the “% Green Peach Aphid Control” value ([2]; 0.9 lb ai/100 gal, 10 DAT)?
The value was 97%.

What about the “% Green Peach Aphid Control” value ([2]; 0.9 lb ai/100 gal, 14 DAT) of the same molecule?
Its value is 95%.

What about the “% Twospotted Spider Mite Control” value ([3]; 2 oz formulated product/100 gal, 7 DAT) of the same molecule?
Its value is 80%.

What about the “% Twospotted Spider Mite Control” value ([3]; 2 oz formulated product/100 gal, 14 DAT) of the same molecule?
The value was 91%.

And the “# of AA 6 DAT” value ([4]; 5 ppm ai)?
The value was 76.

What about the “# of AA 16 DAT” value ([4]; 5 ppm ai) of the same molecule?
The value was 233.

What about the “activity against the cotton aphid” value ([4]; 6 DAT, application rate of 5 ppm ai) of the same molecule?
The value was “moderate activity”.

What about the “# of AA 6 DAT” value ([4]; 10 ppm ai) of the same molecule?
The value was 72.

What about the “# of AA 16 DAT” value ([4]; 10 ppm ai) of the same molecule?
Its value is 222.

What about the “# of AA 6 DAT” value ([4]; 50 ppm ai) of the same molecule?
Its value is 16.

And the “# of AA 16 DAT” value ([4]; 50 ppm ai)?
Its value is 15.

And the “# of AA 6 DAT” value ([4]; 100 ppm ai)?
Its value is 7.

And the “# of AA 16 DAT” value ([4]; 100 ppm ai)?
The value was 7.

What about the “# of AA 6 DAT” value ([4]; 200 ppm ai) of the same molecule?
The value was 1.

And the “# of AA 16 DAT” value ([4]; 200 ppm ai)?
Its value is 4.

And the “# of AA 6 DAT” value ([4]; 300 ppm ai)?
The value was 2.

What about the “# of AA 16 DAT” value ([4]; 300 ppm ai) of the same molecule?
The value was 2.

What about the “intrinsic activity against the cotton aphid” value ([4]; in vivo) of the same molecule?
Its value is “excellent intrinsic activity”.

Which results are given for CO/N=C(/C(=O)OC)c1ccccc1COc1ccccc1C [BAS 490, methyl-(E)-2-methoxyimino-2-[2-o-tolyoxy-methyl)phenyl] acetate]?
% Cotton Aphid Control 6 DAT ([1]; 5 ppm): 11%; % Cotton Aphid Control 16 DAT ([1]; 5 ppm): 13.3%; % Cotton Aphid Control 6 DAT ([1]; 10 ppm): 0%; % Cotton Aphid Control 16 DAT ([1]; 10 ppm): 14.3%; % Cotton Aphid Control 6 DAT ([1]; 50 ppm): 0%; % Cotton Aphid Control 16 DAT ([1]; 50 ppm): 4.4%; % Cotton Aphid Control 6 DAT ([1]; 100 ppm): 0%; % Cotton Aphid Control 16 DAT ([1]; 100 ppm): 26.6%; % Green Peach Aphid Control ([2]; 0.1 lb ai/100 gal, 2 DAT): 0%; % Green Peach Aphid Control ([2]; 0.1 lb ai/100 gal, 4 DAT): 14%; % Green Peach Aphid Control ([2]; 0.1 lb ai/100 gal, 6 DAT): 5%; % Green Peach Aphid Control ([2]; 0.1 lb ai/100 gal, 10 DAT): 10%; % Green Peach Aphid Control ([2]; 0.1 lb ai/100 gal, 14 DAT): 5%; % Twospotted Spider Mite Control ([3]; 3.2 oz formulated product/100 gal, 7 DAT): 16%; % Twospotted Spider Mite Control ([3]; 3.2 oz formulated product/100 gal, 14 DAT): 28%; # of AA 6 DAT ([4]; 5 ppm ai): 258; # of AA 16 DAT ([4]; 5 ppm ai): 650; # of AA 6 DAT ([4]; 10 ppm ai): 290; # of AA 16 DAT ([4]; 10 ppm ai): 643; # of AA 6 DAT ([4]; 50 ppm ai): 298; # of AA 16 DAT ([4]; 50 ppm ai): 717; # of AA 6 DAT ([4]; 100 ppm ai): 316; # of AA 16 DAT ([4]; 100 ppm ai): 550; effectiveness alone against the cotton aphid ([4]; alone, at all rates): ineffective alone

— patent US20030083334A1, “Synergistic insecticidal formulations of pyridaben and strobilurins” (priority 2000, published 2003)
